The test system of data set [1] is SMN2 minigene (full length SMN2 minigene mRNA containing SMN2 exon 7). Nature of the data set: SMN2 minigene mRNA splicing RT-qPCR assay in cultured cells. The class given is cell-based, human. As to conditions: Homo sapiens, HEK293-H, read-out: EC1.5x for production of full length SMN2 mRNA. The essentials:
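Read-out: full-length (exon 7-included) SMN2 minigene mRNA by multiplex RT-qPCR with GAPDH, efficiency-corrected (1+E)^−Ct, GAPDH-normalized and divided by vehicle. Stably transfected HEK293H cells, 24 h compound exposure, duplicates per concentration. Value is EC1.5x, reported as star ranges.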
On the technique in general: In qPCR the cycle at which signal appears reflects the starting amount.

Another data set concerns Smn protein. Nature of the data set: Smn protein assay in cultured cells (SMN HTRF). The class given is cell-based, human. Conditions: 48 hours; for EC1.5x (concentration giving 1.5-fold Smn protein increase): SMA Type 1 patient fibroblast cells (GM03813), 7-point concentration curve, SMN HTRF, concentration producing 1.5 times Smn protein vs DMSO vehicle control, read-out: EC1.5x for Smn protein expression; for maximum fold (Fold) increase of Smn protein: SMA patient fibroblast cells, 7-point concentration data, fold increase relative to vehicle control (SMN HTRF). The essentials: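 Lysates in RIPA with protease inhibitors are incubated overnight at room temperature with HTRF anti-SMN antibodies. EC1.5x is derived from fold increase in ΔF over vehicle.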
Background: TR-FRET usually uses a lanthanide donor and a delayed reading to cut background.

The mark [2] stands for this setting: HEK293H cells stably transfected with SMN2-A minigene, 24 hours, 7-point concentration curve, 1.5-fold relative to vehicle-treated cells.

Like-named read-outs stand apart in the source and are kept apart here.

For the compound `Cc1cn2cc(-c3cc4ccc(N5CCN[C@H](C)C5)cc4oc3=O)nc2s1` [Compound 231, 3-(2-methylimidazo[2,1-b][1,3]thiazol-6-yl)-7-[(3R)-3-methylpiperazin-1-yl]-2H-chromen-2-one], the melting point fell in the range of 178 to 181 °C. Also, in data set [1] (setting [2]), the EC (1.5-fold) lay within 0.3 to 1 µM. Besides, in the data set on Smn protein, the EC1.5x (concentration giving 1.5-fold Smn protein increase) was in the range of 3000 to 10000 nM; the “maximum fold (Fold) increase of Smn protein” value (“maximum fold (Fold) increase” for short) is “** (fold increase between >1.2 and ≤1.35)”.

The compound `Cc1ccn2cc(-c3cc4ccc(N5CCN(C)[C@@H](C)C5)cc4oc3=O)nc2c1` [Compound 379, 7-[(3S)-3,4-dimethylpiperazin-1-yl]-3-(7-methylimidazo[1,2-a]pyridin-2-yl)-2H-chromen-2-one] came in with a melting point of 231 to 241 °C. Moreover, the EC (1.5-fold) in data set [1] (setting [2]) is 0.3 to 1 µM. Besides, the “maximum fold (Fold) increase” value in the data set with Smn protein was “*** (fold increase between >1.35 and ≤1.5)”.

In turn, `Cc1cn2cc(-c3cc4ccc(N[C@@H]5CCN(CCO)C5)cc4oc3=O)nc2c(C)n1` [Compound 732, 3-(6,8-dimethylimidazo[1,2-a]pyrazin-2-yl)-7-{[(3R)-1-(2-hydroxyethyl)pyrrolidin-3-yl]amino}-2H-chromen-2-one] registered a melting point of 211 to 219 °C. Besides, the EC (1.5-fold) in data set [1] (setting [2]) was under 0.1 µM. Besides, in the data set on Smn protein, the EC1.5x (concentration giving 1.5-fold Smn protein increase) is under 300 nM; the “maximum fold (Fold) increase” value was “*** (fold increase between >1.35 and ≤1.5)”.

`O=c1oc2cc(N3CCN4CCC3CC4)ccc2cc1-c1cn2cccc(F)c2n1` [Compound 501, 7-(1,4-diazabicyclo[3.2.2]non-4-yl)-3-(8-fluoroimidazo[1,2-a]pyridin-2-yl)-2H-chromen-2-one] displayed a melting point of 175 to 178 °C. Besides, in data set [1] (24 h), the EC (1.5-fold) fell in the range of 0.1 to 0.3 µM. In the data set on Smn protein, the “maximum fold (Fold) increase” value is “** (fold increase between >1.2 and ≤1.35)”.

With `Cc1cccnc1Nc1cc2ccc(N3CCNCC3)cc2oc1=O` [Compound 61, 3-[(3-methylpyridin-2-yl)amino]-7-(piperazin-1-yl)-2H-chromen-2-one], the melting point lay in the range of 164 to 167 °C. Further, in data set [1] (setting [2]), the EC (1.5-fold) was 3 to 30 µM. Moreover, the “maximum fold (Fold) increase” value in the data set with Smn protein was “** (fold increase between >1.2 and ≤1.35)”.

Turning to `Cc1cn2cc(-c3cc4ccc(CCCNCc5ccccc5)cc4oc3=O)nc2c(C)n1` [Cpd 933, 7-[3-(benzylamino)propyl]-3-(6,8-dimethylimidazo[1,2-a]pyrazin-2-yl)-2H-chromen-2-one], the melting point fell in the range of 143 to 147 °C. The EC (1.5-fold) in data set [1] (setting [2]) is under 0.1 µM. For the same compound, in the data set on Smn protein, the “maximum fold (Fold) increase” value is recorded as “* (maximum fold increase of ≤1.2)”.

`Cc1cnc2nc(-c3cc4ccc(N5CCNCC5)cc4oc3=O)cn2c1` [Cpd 241, 3-(6-methylimidazo[1,2-a]pyrimidin-2-yl)-7-(piperazin-1-yl)-2H-chromen-2-one] had a melting point of over 300 °C. Moreover, the EC (1.5-fold) in data set [1] (setting [2]) is 0.3 to 1 µM. For the same compound, in the data set on Smn protein, the “maximum fold (Fold) increase” value is recorded as “* (maximum fold increase of ≤1.2)”.

For `Cc1cn2cc(-c3cc4ccc(N5CC[C@H](NC(=O)OC(C)(C)C)C5)cc4oc3=O)cc2c(C)n1` [Compound 724, tert-butyl {(3S)-1-[3-(1,3-dimethylpyrrolo[1,2-a]pyrazin-7-yl)-2-oxo-2H-chromen-7-yl]pyrrolidin-3-yl}carbamate], the melting point lay within 193 to 196 °C. Further, in data set [1] (setting [2]), the EC (1.5-fold) was 1 to 3 µM. The “maximum fold (Fold) increase” value in the data set on Smn protein was “* (maximum fold increase of ≤1.2)”.

In turn, `Cc1cn2cc(-c3cc4ccc(CCCCN5CCNCC5)cc4oc3=O)nc2c(C)n1` [Compound 905, 3-(6,8-dimethylimidazo[1,2-a]pyrazin-2-yl)-7-[4-(piperazin-1-yl)butyl]-2H-chromen-2-one] yielded a melting point of 187 to 191 °C. Further, the EC (1.5-fold) in data set [1] (setting [2]) lay within 1 to 3 µM. In addition, in the data set on Smn protein, the EC1.5x (concentration giving 1.5-fold Smn protein increase) lay in the range of 1000 to 3000 nM; the “maximum fold (Fold) increase” value was “**** (fold increase between >1.5 and ≤1.65)”.

Compound `Cc1cn2cc(-c3cc4ccc(N5CCN(C)CC5)cc4oc3=O)cc2c(C)n1` [Compound 644, 3-(1,3-dimethylpyrrolo[1,2-a]pyrazin-7-yl)-7-(4-methylpiperazin-1-yl)-2H-chromen-2-one] returned a melting point of 127 to 131 °C. Besides, the EC (1.5-fold) in data set [1] (setting [2]) is under 0.1 µM. In the data set on Smn protein, the EC1.5x (concentration giving 1.5-fold Smn protein increase) was under 300 nM and the “maximum fold (Fold) increase” value is recorded as “***** (fold increase >1.65)”.

Consider `Cc1cc2cc(-c3cc4ccc(N5CCN(C)[C@@H](C)C5)cc4oc3=O)oc2c(C)n1` [Compound 805, 3-(5,7-dimethylfuro[2,3-c]pyridin-2-yl)-7-[(3S)-3,4-dimethylpiperazin-1-yl]-2H-chromen-2-one], for which the melting point lay in the range of 200 to 205 °C. In data set [1] (setting [2]), the EC (1.5-fold) is under 0.1 µM. In the data set on Smn protein, the EC1.5x (concentration giving 1.5-fold Smn protein increase) is under 300 nM and the “maximum fold (Fold) increase” value is reported as “***** (fold increase >1.65)”.

`O=c1oc2cc(N3CCNCC3)ccc2cc1-c1cn2cc(C3CC3)cc(F)c2n1` [Compound 500, 3-(6-cyclopropyl-8-fluoroimidazo[1,2-a]pyridin-2-yl)-7-(piperazin-1-yl)-2H-chromen-2-one] yielded a melting point of 261 to 271 °C. Besides, the EC (1.5-fold) in data set [1] (setting [2]) lay in the range of 0.3 to 1 µM. Besides, the “maximum fold (Fold) increase” value in the data set on Smn protein was “* (maximum fold increase of ≤1.2)”.

On to `Cc1ccn2cc(-c3cc4ccc(N5C[C@@H](C)N[C@@H](C)C5)cc4oc3=O)nc2n1` [Compound 225, 7-[(3R,5S)-3,5-dimethylpiperazin-1-yl]-3-(7-methylimidazo[1,2-a]pyrimidin-2-yl)-2H-chromen-2-one], for which the melting point is 246 to 252 °C. In data set [1] (setting [2]), the EC (1.5-fold) was in the range of 0.3 to 1 µM. Also, the “maximum fold (Fold) increase” value with Smn protein was “*** (fold increase between >1.35 and ≤1.5)”.

The compound `CCN1CCN(c2cc(F)c3cc(-c4cn5cc(C)nc(C)c5n4)c(=O)oc3c2)CC1` [Compound 746, 3-(6,8-dimethylimidazo[1,2-a]pyrazin-2-yl)-7-(4-ethylpiperazin-1-yl)-5-fluoro-2H-chromen-2-one] had a melting point of 232 to 234 °C. The EC (1.5-fold) in data set [1] (setting [2]) was under 0.1 µM. Further, in the data set on Smn protein, the EC1.5x (concentration giving 1.5-fold Smn protein increase) was under 300 nM and the “maximum fold (Fold) increase” value is recorded as “***** (fold increase >1.65)”.

As for `O=c1oc2cc(N3CCCNCC3)ccc2cc1-c1cn2cccc(Cl)c2n1` [Compound 212, 3-(8-chloroimidazo[1,2-a]pyridin-2-yl)-7-(1,4-diazepan-1-yl)-2H-chromen-2-one], the melting point was 170 to 173 °C. Also, the EC (1.5-fold) in data set [1] (setting [2]) lay in the range of 0.3 to 1 µM. In the data set on Smn protein, the EC1.5x (concentration giving 1.5-fold Smn protein increase) was in the range of 300 to 1000 nM; the “maximum fold (Fold) increase” value was “**** (fold increase between >1.5 and ≤1.65)”.

For `C[C@@H]1CN(c2ccc3cc(-c4cn5cccc(Cl)c5n4)c(=O)oc3c2)C[C@H](C)N1` [Compound 120, 3-(8-chloroimidazo[1,2-a]pyridin-2-yl)-7-[(3R,5S)-3,5-dimethylpiperazin-1-yl]-2H-chromen-2-one], the melting point is 286 °C (dec.). The EC (1.5-fold) in data set [1] (setting [2]) is under 0.1 µM. In addition, in the data set on Smn protein, the EC1.5x (concentration giving 1.5-fold Smn protein increase) was under 300 nM; the “maximum fold (Fold) increase” value was “**** (fold increase between >1.5 and ≤1.65)”.

`CCCN1CCN(c2ccc3cc(-c4cc5cc(C)ccn5n4)c(=O)oc3c2)CC1` [Compound 308, 3-(5-methylpyrazolo[1,5-a]pyridin-2-yl)-7-(4-propylpiperazin-1-yl)-2H-chromen-2-one] came in with a melting point of 228 to 230 °C. In addition, in data set [1] (setting [2]), the EC (1.5-fold) lay within 3 to 30 µM. Also, the “maximum fold (Fold) increase” value in the data set on Smn protein was “** (fold increase between >1.2 and ≤1.35)”.

`CN(C)CCN(C)c1ccc2cc(-c3cn4cccnc4n3)c(=O)oc2c1` [Compound 130, 7-{[2-(dimethylamino)ethyl](methyl)amino}-3-(imidazo[1,2-a]pyrimidin-2-yl)-2H-chromen-2-one] had a melting point of 175 to 180 °C. Moreover, the EC (1.5-fold) in data set [1] (setting [2]) is 1 to 3 µM. Also, the “maximum fold (Fold) increase” value in the data set with Smn protein is “* (maximum fold increase of ≤1.2)”.

The compound `Cc1cn2cc(-c3cc4ccc(OCCN[C@@H](C)CO)cc4oc3=O)nc2c(C)n1` [Compound 947, 3-(6,8-dimethylimidazo[1,2-a]pyrazin-2-yl)-7-(2-{[(2S)-1-hydroxypropan-2-yl]amino}ethoxy)-2H-chromen-2-one] came in with a melting point of 186 to 188 °C. For the same compound, the EC (1.5-fold) in data set [1] (setting [2]) is under 0.1 µM. In the data set on Smn protein, the EC1.5x (concentration giving 1.5-fold Smn protein increase) is under 300 nM; the “maximum fold (Fold) increase” value is “**** (fold increase between >1.5 and ≤1.65)”.

As for `Cc1cn2cc(-c3cc4ccc(N5C[C@@H](C)N[C@@H](C)C5)cc4oc3=O)cc2c(C)n1` [Compound 645, 7-[(3R,5S)-3,5-dimethylpiperazin-1-yl]-3-(1,3-dimethylpyrrolo[1,2-a]pyrazin-7-yl)-2H-chromen-2-one], the melting point lay in the range of 170 to 173 °C. In addition, the EC (1.5-fold) in data set [1] (setting [2]) was under 0.1 µM. For the same compound, in the data set with Smn protein, the EC1.5x (concentration giving 1.5-fold Smn protein increase) was under 300 nM and the “maximum fold (Fold) increase” value is recorded as “***** (fold increase >1.65)”.

In the case of `O=c1oc2cc(N3CC4CCC(C3)N4)ccc2cc1-c1cn2cccc(F)c2n1` [Compound 506, 7-(3,8-diazabicyclo[3.2.1]oct-3-yl)-3-(8-fluoroimidazo[1,2-a]pyridin-2-yl)-2H-chromen-2-one], the melting point was in the range of 232 to 235 °C. Further, the EC (1.5-fold) in data set [1] (24 h) was 0.1 to 0.3 µM. For the same compound, in the data set with Smn protein, the “maximum fold (Fold) increase” value was “** (fold increase between >1.2 and ≤1.35)”.

A word on the melting point: it is the temperature, or range, at which the solid turns liquid.

For the origin of these results see patent USRE47689E1, “Compounds for treating spinal muscular atrophy” (PTC Therapeutics, Inc., priority 2011, dated 2019).
